For 29 compounds, IC50 and EC50 results are on record in patent US10294229B2, “Heteroaryl substituted aminopyridine compounds” (BRISTOL-MYERS SQUIBB COMPANY, priority 2015, dated 2019).

The target of experiment [1] is IRAK4 (Homo sapiens (Human), UniProt Q9NWZ3). The experiment can be described thus: IRAK4 Inhibition Assay. In kind it is biochemical. The following applies: ATP 500 μM; IRAK4 0.6 nM. The method, boiled down: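 Readout: electrophoretic (LabChip) separation of fluorescent peptide substrate from phosphorylated product after EDTA quench. Reactions ran 60 min at room temperature with 0.6 nM IRAK4, 1.5 μM peptide and 500 μM ATP; inhibition referenced to no-enzyme (100%) and vehicle (0%) controls.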

Experiment [2] has as its system Human whole blood stimulated with a TLR2 agonist (lipoteichoic acid), IL-6 levels. The experiment can be described thus: IRAK4 Whole Blood Assay. In kind it is cell-based. Conditions: lipoteichoic acid 10 μg/mL. How it is done: Human whole blood containing the anti-coagulant ACD-A was plated in 384-well plate (25 μL/well) and incubated with compounds for 60 minutes at 37° C. in a 5% CO2 incubator. The blood was stimulated with a TLR2 agonist, 10 μg/mL final concentration of lipoteichoic acid (Invivogen, San Diego, Calif.) in 25 μL RPMI (Gibco) for 5 hours in a 5% CO2 incubator. At the end of the incubation, plates were centrifuged at 2300 rpm for 5 minutes. Supernatants were harvested and analyzed for IL-6 levels by Flow Cytometry beads assay (BD Biosciences, San Jose, Calif.).

Sequence of IRAK4 (Q9NWZ3 whole entry, species assumed): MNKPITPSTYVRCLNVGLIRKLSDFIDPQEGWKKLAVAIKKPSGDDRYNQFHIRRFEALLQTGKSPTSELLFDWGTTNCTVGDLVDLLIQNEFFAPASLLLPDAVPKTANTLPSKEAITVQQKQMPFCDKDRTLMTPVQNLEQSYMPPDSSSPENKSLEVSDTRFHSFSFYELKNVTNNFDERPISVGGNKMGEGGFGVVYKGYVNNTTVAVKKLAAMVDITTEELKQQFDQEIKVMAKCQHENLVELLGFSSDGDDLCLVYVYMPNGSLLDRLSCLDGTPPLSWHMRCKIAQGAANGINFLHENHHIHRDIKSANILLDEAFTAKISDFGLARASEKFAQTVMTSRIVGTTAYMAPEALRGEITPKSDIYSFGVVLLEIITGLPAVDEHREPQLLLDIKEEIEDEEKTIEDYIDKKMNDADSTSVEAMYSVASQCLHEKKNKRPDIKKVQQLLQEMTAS

For orientation: IC50 means the point on the concentration scale where inhibition reaches its midpoint. Broadly, the EC50 is the concentration giving half of the maximal effect. A lower EC50 goes with a more potent agent. In the case of `CC(C)Nc1cc(-n2ncc3cc(C#N)cnc32)ncc1-n1cc(CC(F)C(C)(C)O)nn1` (racemic) [345, racemic, (±)-1-(5-(4-(2-fluoro-3-hydroxy-3-methylbutyl)-1H-1,2,3-triazol-1-yl)-4-(isopropylamino)pyridin-2-yl)-1H-pyrazolo[3,4-b]pyridine-5-carbonitrile], in experiment [1], the IC50 was 4 nM. The EC50 in experiment [2] (Homo sapiens) worked out at 270 nM. In the case of `CC(C)Nc1cc(-n2ncc3cc(C#N)cnc32)ncc1-c1cn([C@@H]2CCC[C@H]2O)nn1` (single isomer, unassigned) [Example 80], the half-maximal inhibitory concentration (IC50) in experiment [1] came to 3 nM. The same compound had an EC50 in experiment [2] of 590 nM.

For `CC(C)Nc1cc(-n2cnc3cc(C#N)cnc32)ncc1-c1cn([C@@H]2CCC[C@H]2O)nn1` (single isomer, unassigned) [Example 81], in experiment [1], the IC50 worked out at 4 nM. In experiment [2] (Homo sapiens), this compound registered an EC50 of 1540 nM. Turning to `CC(C)Nc1cc(-n2ncc3cc(C#N)cnc32)ncc1-c1cn([C@@H]2CCC[C@H]2O)nn1` (single isomer, unassigned) [Example 82], in experiment [1], the IC50 worked out at 5 nM. In addition, a half-maximal effect in experiment [2] (EC50) was put at 1660 nM. For `CC(C)Nc1cc(-n2cnc3cc(C#N)cnc32)ncc1-c1cn([C@@H]2CCC[C@H]2O)nn1` (single isomer, unassigned) [Example 83], in that order: 5 nM and 860 nM. For `CC(C)Nc1cc(-n2ncc3cc(C#N)cnc32)ncc1-c1cn([C@H](C)[C@H](C)O)nn1` (single isomer, unassigned) [Example 89], in that order: 7 nM and 930 nM.

Consider `CC(C)Nc1cc(-n2ncc3cc(C#N)cnc32)ncc1-c1cn([C@@H](C)[C@H](C)O)nn1` (single isomer, unassigned) [Example 91], for which, in experiment [1], the IC50 was found to be 5 nM. The compound further displayed an EC50 in experiment [2] of 1920 nM.

Regarding `CC(C)Nc1cc(-n2ncc3cc(C#N)cnc32)ncc1-c1cn([C@@H]2CCN(S(C)(=O)=O)C[C@H]2O)nn1` (single isomer, unassigned) [Example 199], the 50% inhibitory concentration (IC50) in experiment [1] was 4 nM. Further, in experiment [2] (Homo sapiens), the EC50 was determined as 550 nM. For `CC(C)Nc1cc(-n2ncc3cc(C#N)cnc32)ncc1-c1cn([C@@H]2CCN(S(C)(=O)=O)C[C@H]2OS(C)(=O)=O)nn1` (single isomer, unassigned) [Example 202], in that order: 5 nM and 950 nM. On to `CC(C)Nc1cc(-n2ncc3cc(C#N)cnc32)ncc1-c1cn([C@@H]2CCN(S(C)(=O)=O)C[C@H]2O)nn1` (single isomer, unassigned) [Example 204], for which the IC50 in experiment [1] came to 6 nM. Also, the EC50 in experiment [2] was found to be 710 nM. Regarding `CC(O)Cc1cn(-c2cnc(-n3ncc4cc(C#N)cnc43)cc2NC(C)C)nn1` (single isomer, unassigned) [Example 265, 1-(5-(4-(2-hydroxypropyl)-1H-1,2,3-triazol-1-yl)-4-(isopropylamino)pyridin-2-yl)-1H-pyrazolo[3,4-b]pyridine-5-carbonitrile], in experiment [1], the IC50 was 5 nM. In experiment [2] (Homo sapiens), this compound returned an EC50 of 410 nM.

For `CC(F)Cc1cn(-c2cnc(-n3cnc4cc(C#N)cnc43)cc2NC(C)C)nn1` (single isomer, unassigned) [Example 291, 3-(5-(4-(2-fluoropropyl)-1H-1,2,3-triazol-1-yl)-4-(isopropylamino)pyridin-2-yl)-3H-imidazo[4,5-b]pyridine-6-carbonitrile], the IC50 in experiment [1] turned out to be 14 nM. Further, in experiment [2] (Homo sapiens), a half-maximal response (EC50) required 850 nM. `CC(F)Cn1cc(-c2cnc(-n3ncc4cc(C#N)cnc43)cc2NC(C)C)nn1` (single isomer, unassigned; enantiomer 2) [Example 167, 1-(5-(1-(2-fluoropropyl)-1H-1,2,3-triazol-4-yl)-4-(isopropylamino)pyridin-2-yl)-1H-pyrazolo[3,4-b]pyridine-5-carbonitrile, enantiomer 2]: in experiment [1], the IC50 was determined as 7 nM. Moreover, the EC50 in experiment [2] came out at 1030 nM. Regarding `CC(C)Nc1cc(-n2ccc3cncnc32)ncc1-c1cn(CCO)nn1` [Example 1, 2-(4-(4-(isopropylamino)-6-(7H-pyrrolo[2,3-d]pyrimidin-7-yl)pyridin-3-yl)-1H-1,2,3-triazol-1-yl)ethanol], the IC50 in experiment [1] stood at 7 nM. In addition, the response in experiment [2] (Homo sapiens) was half-maximal at 830 nM (EC50). As for `CCOC(=O)Cn1cc(-c2cnc(-n3ccc4cncnc43)cc2NC(C)C)nn1` [Example 2, ethyl 2-(4-(4-(isopropylamino)-6-(7H-pyrrolo[2,3-d]pyrimidin-7-yl)pyridin-3-yl)-1H-1,2,3-triazol-1-yl)acetate], the IC50 in experiment [1] is 1 nM. For the same compound, a half-maximal effect in experiment [2] (Homo sapiens) (EC50) was put at 10000 nM. Turning to `CC(C)Nc1cc(-n2ccc3cncnc32)ncc1-c1cn(CCCCCN)nn1` [Example 5, 5-(1-(5-aminopentyl)-1H-1,2,3-triazol-4-yl)-N-isopropyl-2-(7H-pyrrolo[2,3-d]pyrimidin-7-yl)pyridin-4-amine], the IC50 in experiment [1] amounted to 3 nM. The compound further displayed an EC50 in experiment [2] (Homo sapiens) of 2130 nM. For `CC(C)Nc1cc(-n2ncc3cc(C#N)cnc32)ncc1-c1cn(C2CCCCC2)nn1` [Example 17, 1-(5-(1-cyclohexyl-1H-1,2,3-triazol-4-yl)-4-(isopropylamino)pyridin-2-yl)-1H-pyrazolo[3,4-b]pyridine-5-carbonitrile], in that order: 5 nM and 1970 nM. For `CC(C)Nc1cc(-n2ncc3cc(C#N)cnc32)ncc1-c1cn(-c2ccccc2F)nn1` [Example 20, 1-(5-(1-(2-fluorophenyl)-1H-1,2,3-triazol-4-yl)-4-(isopropylamino)pyridin-2-yl)-1H-pyrazolo [3,4-b]pyridine-5-carbonitrile], in that order: 7 nM and 20000 nM.

`CC(C)Nc1cc(-n2ncc3cc(C#N)cnc32)ncc1-c1cn(C2CCN(C)C2=O)nn1` (stereo not shown) [Example 22, 1-(4-(isopropylamino)-5-(1-(1-methyl-2-oxopyrrolidin-3-yl)-1H-1,2,3-triazol-4-yl)pyridin-2-yl)-1H-pyrazolo[3,4-b]pyridine-5-carbonitrile]: the IC50 in experiment [1] came out at 4 nM. This compound displayed an EC50 in experiment [2] of 490 nM. `CC(C)Nc1cc(-n2ncc3cc(C#N)cnc32)ncc1-c1cn(CCCO)nn1` [Example 28, 1-(5-(1-(3-hydroxypropyl)-1H-1,2,3-triazol-4-yl)-4-(isopropylamino)pyridin-2-yl)-1H-pyrazolo [3,4-b]pyridine-5-carbonitrile]: the IC50 in experiment [1] was determined as 6 nM. Further, in experiment [2] (Homo sapiens), the concentration giving a half-maximal response (EC50) stood at 1910 nM.

For the compound `CC(C)Nc1cc(-n2ncc3cc(C#N)cnc32)ncc1-c1cn(CCN)nn1` [Example 172, 1-(5-(1-(2-aminoethyl)-1H-1,2,3-triazol-4-yl)-4-(isopropylamino)pyridin-2-yl)-1H-pyrazolo[3,4-b]pyridine-5-carbonitrile], a half-maximal response in experiment [2] (Homo sapiens) (EC50) required 950 nM. As to `CC(F)Cc1cn(-c2cnc(-n3ncc4cc(C#N)cnc43)cc2NC(C)C)nn1` (stereo not shown) [Example 294, 1-(5-(4-(2-fluoropropyl)-1H-1,2,3-triazol-1-yl)-4-(isopropylamino)pyridin-2-yl)-1H-pyrazolo[3,4-b]pyridine-5-carbonitrile], a half-maximal response in experiment [2] (Homo sapiens) (EC50) required 1710 nM. As for `CC(C)(O)CCc1cn(-c2cnc(-n3ncc4cc(C#N)cnc43)cc2N[C@H]2CC[C@@H](F)CC2)nn1` [Example 374, 1-(4-(((1r,4r)-4-fluorocyclohexyl)amino)-5-(4-(3-hydroxy-3-methylbutyl)-1H-1,2,3-triazol-1-yl)pyridin-2-yl)-1H-pyrazolo[3,4-b]pyridine-5-carbonitrile], the IC50 in experiment [1] amounted to 2 nM. On to `C[C@@H](CO)Nc1cc(-n2ncc3cc(C#N)cnc32)ncc1-n1cc(CCC(C)(C)O)nn1` [Example 376, (S)-1-(5-(4-(3-hydroxy-3-methylbutyl)-1H-1,2,3-triazol-1-yl)-4-((1-hydroxypropan-2-yl)amino)pyridin-2-yl)-1H-pyrazolo[3,4-b]pyridine-5-carbonitrile], for which, in experiment [2] (Homo sapiens), the midpoint of the response, the EC50, lay at 380 nM. The same measure, in the same setting: under `CC(C)(O)CCc1cn(-c2cnc(-n3ncc4cc(C#N)cnc43)cc2NC2CCC(O)CC2)nn1` (stereo not shown) [Example 385, 1-(5-(4-(3-hydroxy-3-methylbutyl)-1H-1,2,3-triazol-1-yl)-4-(((1 s,4s)-4-hydroxycyclohexyl)amino)pyridin-2-yl)-1H-pyrazolo[3,4-b]pyridine-5-carbonitrile] stands 490 nM. Take `CC(C)(O)CCc1cn(-c2cnc(-n3ncc4cc(C#N)cnc43)cc2N[C@H]2CC[C@H](O)CC2)nn1` [Example 385, 1-(5-(4-(3-hydroxy-3-methylbutyl)-1H-1,2,3-triazol-1-yl)-4-(((1 s,4s)-4-hydroxycyclohexyl)amino)pyridin-2-yl)-1H-pyrazolo[3,4-b]pyridine-5-carbonitrile]: the IC50 in experiment [1] came out at 3 nM. Same read-out and setting: under `CC(=O)N[C@H]1CC[C@H](c2cc(-c3cnc(-n4ncc5cc(C#N)cnc54)cc3NC(C)C)on2)CC1` [Example 410, N-((1s,4s)-4-(5-(6-(5-cyano-1H-pyrazolo[3,4-b]pyridin-1-yl)-4-(isopropylamino)pyridin-3-yl)isoxazol-3-yl)cyclohexyl)acetamide] stands 2 nM; under `COC(=O)N[C@H]1CC[C@H](c2cc(-c3cnc(-n4ncc5cc(C#N)cnc54)cc3NC(C)C)on2)CC1` [Example 411, methyl ((1s,4s)-4-(5-(6-(5-cyano-1H-pyrazolo[3,4-b]pyridin-1-yl)-4-(isopropylamino)pyridin-3-yl)isoxazol-3-yl)cyclohexyl)carbamate], 3 nM.

`CC(C)Nc1cc(-n2ncc3cc(C#N)cnc32)ncc1-c1cc([C@@H]2CCCCN2)on1` [Example 430, (S)-1-(4-(isopropylamino)-5-(5-(piperidin-2-yl)isoxazol-3-yl)pyridin-2-yl)-1H-pyrazolo[3,4-b]pyridine-5-carbonitrile]: a half-maximal effect in experiment [2] (Homo sapiens) (EC50) was put at 470 nM.
